Laboratory results taken from patent US20100048727A1, “PERFLUOROKETONE COMPOUNDS AND USES THEREOF” (priority 2007, published 2010).
“Also recorded” adds a separate entry of the source.

Columns and labels:
Format in all cases: in vivo
[1] = system: inflammatory cytokines and chemokines in spinal cord; test: Mouse Inflammation antibody array on spinal cords of EAE mice; conditions: peak stage (day 18)
Description: Mouse Inflammation antibody array. Spinal cords were removed from vehicle- and FKGK11-treated animals at the peak stage of disease, and were then homogenized and centrifuged at 1000×g. The proteins were extracted and analyzed using the RayBio® Mouse Inflammation Antibody Array 1.1 (Cat. #0106008/AAM-INF-1; RayBiotech Inc.; Norcross, Ga.), which simultaneously detects 40 cytokines and other related proteins. Densitometry analysis was performed to detect differences between the various inflammatory mediators.
To further examine the effects of iPLA2 inhibitor treatment, the expression of 40 inflammatory cytokines and chemokines was assessed using the RayBio® Mouse Inflammation Antibody Array 1.1 (RayBiotech Inc., Norcross, Ga, Cat. #0106008/AAM-INF-1). The analysis was carried out on spinal cords taken from the peak stage of clinical disability (day 18), from mice treated with either a vehicle control, or the iPLA2-specific inhibitor FKGK11.

EAE-induced SJL/J mice = test: Clinical course of EAE in SJL/J mice treated with fluoroketone compounds
[2] = system: spinal cord contusion injury (SCI) mice; test: Spinal cord contusion injury in mice: BMS locomotor recovery and histology
Description: Spinal cord contusion and drug administration. All surgical procedures were approved by the McGill University Animal Care Committee and followed the guidelines of the Canadian Council on Animal Care. Adult (8-10 weeks old) female BALB/c (Charles River Canada), cPLA2 IVA^−/− and wild type littermates mice, were anesthetized with ketamine:xylazine:acepromazine (50:5:1 mg/kg). After performing a laminectomy at the 11th thoracic vertebrae, the exposed spinal cord was contused using the Infinite Horizons Impactor™ device (Precision Scientific Instrumentation, Lexington, Ky.). Moderate injuries were made using a force of 50 kDynes, and only animals that had tissue displacement ranged between 400-600 μm were used (Ghasemblou et al. (2005). Exp Neurol. 196(1): 9-17).
PLA2 inhibitor treatment. Mice were given daily intraperitoneal injections of 2 mM fluoroketone (iPLA2 inhibitor; FKGK11) in 200 μl (6.85 mg/kg), starting 1 h after contusion and for 14 days. The control group that also had SCI were treated daily with vehicle.
Functional assessment. Locomotor recovery was evaluated in an open-field test using the Basso Mouse Scale (BMS) (Basso D. M. et al., (2006). J Neurotrauma. 23(5): 635-59). The BMS analysis of hindlimb movements and coordination was carried out by two independent assessors and the consensus score taken. The final score is presented as mean±SEM.
Histology. Mice were perfused with 4% paraformaldehyde in 0.1M phosphate buffer (PB) at 1, 3, 7, 14 and 28 days post-lesion. 5 mm length of the spinal cord containing the lesion site was removed, cryoprotected with 30% sucrose in 0.1M PB, and cut in serial sections (16 μm thick). For double immunoflorescence, sections were incubated with antibodies against iPLA2 VIA (Cayman Chemical) combined with antibodies against Mac-1 (for macrophages/microglia, Serotec), GFAP (for astrocytes, Zymed Labs), CC1 (for oligodendrocytes, Calbiochem), NeuN (for neurons, 1:500, Chemicon) and SMI312 (for axons, Covance). Immunfluorescence labeling for 5-hydroxytryptamine (5-HT) (Sigma, Aldreich) was also performed to assess innervation of serotonergic axons caudal to the lesion. In addition, one series of serial sections of the spinal cord were stained with Luxol fast blue (LFB) histochemistry, which stains myelin, and another series stained with cresyl violet histochemistry to quantify neuronal loss.
Quantification of histological results. Histological quantification was performed from spinal cord sections harvested at 28 days post-lesion. Tissue sections were viewed with an Axioskop™ 2 Plus microscope (Zeiss) and images captured using a Qlmaging Retiga™ 1300 camera, and quantification done using BioQuant™ Nova Prime image analysis system (BioQuant Image Analysis Corp.). Tissue and myelin sparing was calculated by delineating the GFAP and LFB stained sections. Neuronal survival was assessed by counting the neuron profiles in the ventral horn of the spinal cord in tissue sections stained with cresyl violet. Assessment of serotonergic innervation was performed by calculating the area occupied by serotoninergic axons in the lateral funiculi and ventral horns of spinal cord sections taken at a distance of 1000 μm caudal to the lesion site.
Statistical analyses (spinal cord injury experiments, Examples 19-20). Data are shown as mean±s.e.m. RT-PCR and Western blot analyses were done using one-way ANOVA with post-hoc Dunnett's test. Statistical analyses of the functional and histological assessments were performed using two-way repeated measures ANOVA with post-hoc Tukey's test for multiple comparisons. Differences were considered significant at p<0.05.

Compound: O=C(CCCCc1ccccc1)C(F)(F)C(F)(F)F [FKGK11, 1,1,1,2,2-Pentafluoro-7-phenyl-3-heptanone]
- IL-10 expression [1]: increase
- number of chemokine proteins with marked reduction ([1]; of 15 chemokines increased in vehicle-treated control): 11
- number of pro-inflammatory cytokines with reduced expression ([1]; of 17 cytokines increased in vehicle-treated control): 13
- clinical disability score between days 22-27 (EAE-induced SJL/J mice; delayed treatment from day 11, 5-point scale): 0.8
- maximal clinical disability score (EAE-induced SJL/J mice; delayed treatment from day 11, on day 17, 5-point scale): 1.4
- clinical disability score at second peak (EAE-induced SJL/J mice; delayed treatment from day 11, on day 30, 5-point scale): 1.2
- severity and progression of the disease (EAE) (EAE-induced SJL/J mice; delayed treatment from day 11 after immunization, 2 weeks, i.p., vs vehicle): marked reduction
- maximum clinical disability score (EAE-induced SJL/J mice; treatment before onset of symptoms, daily for 3 weeks from day 6, course until day 40, 5-point scale): 1.0 grade
- clinical severity and progression of EAE (EAE-induced SJL/J mice; treatment before onset of symptoms, daily for 3 weeks from day 6, vs vehicle): marked reduction
- main BMS scores (locomotor recovery) ([2]; 6.85 mg/kg i.p. daily for 14 days from 1 h after contusion, vs vehicle): did not reach statistical significance; also recorded: No significant differences
- BMS subscores (fine locomotor coordination and control) ([2]; 6.85 mg/kg i.p. daily for 14 days, 28 days after SCI, vs vehicle): significant improvement; also recorded: significantly better BMS subscores
- sparing of serotonergic fibers in the lateral funiculi ([2]; 1000 μm caudal to the epicenter, 28 days after SCI): significantly greater sparing of serotonergic fibers
- increase in serotonergic (5-HT) fibers in the lateral white matter ([2]; 1000 μm caudal to the epicenter, 28 days after SCI, compared to vehicle-treated SCI controls): ~40%
- neuronal survival in the ventral horn ([2]; 28 days after SCI, vs vehicle): little if any effect; also recorded: No significant differences
- tissue sparing ([2]; epicenter and adjacent areas, 28 days after SCI, vs vehicle): significantly greater tissue sparing; also recorded: greater amount of tissue sparing
- myelin sparing (Luxol fast blue) ([2]; regions near the epicenter, 28 days after SCI, vs vehicle): significant enhancement of myelin sparing; also recorded: greater sparing of myelin
